Results on 11 molecules are retold here after US20050096360A1, “Inhibitors of semicarbazide-sensitive amine oxidase (SSAO) and VAP-1 mediated adhesion useful for treatment of diseases” (priority 2003, published 2005).

Counter-ions that a name gives are not always drawn. Like-named read-outs stand apart in the source and are kept apart here.

For data set [1], the target named is T1, SSAO (bovine plasma amine oxidase, PAO) (Bos taurus, UniProt Q29437).
T1 construct: Bovine plasma amine oxidase (PAO) was purchased from Worthington Biochemical; purchased Worthington Biochemical (Lakewood, N.J.)
T1 sequence (Q29437 17-762): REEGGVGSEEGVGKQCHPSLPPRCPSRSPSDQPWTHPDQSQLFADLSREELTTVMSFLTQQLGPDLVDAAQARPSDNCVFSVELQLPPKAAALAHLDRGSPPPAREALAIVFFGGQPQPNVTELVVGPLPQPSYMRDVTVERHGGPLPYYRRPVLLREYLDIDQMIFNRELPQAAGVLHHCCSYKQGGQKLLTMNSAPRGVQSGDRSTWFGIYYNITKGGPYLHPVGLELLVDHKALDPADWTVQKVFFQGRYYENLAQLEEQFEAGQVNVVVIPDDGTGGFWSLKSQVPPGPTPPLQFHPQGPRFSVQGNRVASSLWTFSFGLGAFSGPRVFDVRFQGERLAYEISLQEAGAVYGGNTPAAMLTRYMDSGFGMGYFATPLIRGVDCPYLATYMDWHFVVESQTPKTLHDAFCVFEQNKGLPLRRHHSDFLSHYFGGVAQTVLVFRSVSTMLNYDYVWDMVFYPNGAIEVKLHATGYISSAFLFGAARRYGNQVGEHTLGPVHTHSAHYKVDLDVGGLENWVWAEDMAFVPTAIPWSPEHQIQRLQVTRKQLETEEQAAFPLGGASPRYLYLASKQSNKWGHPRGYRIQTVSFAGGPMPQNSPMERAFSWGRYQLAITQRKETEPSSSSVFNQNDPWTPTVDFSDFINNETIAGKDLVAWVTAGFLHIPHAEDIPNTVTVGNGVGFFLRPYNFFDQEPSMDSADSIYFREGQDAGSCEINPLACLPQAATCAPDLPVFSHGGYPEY
Description: In vitro inhibition of SSAO activity, coupled colorimetric method. The format is biochemical. How it is done: SSAO activity was measured using the coupled colorimetric method essentially as described for monoamine oxidase and related enzymes (Holt A. et al. (1997) Anal. Biochem. 244:384). Bovine plasma amine oxidase (PAO) was purchased from Worthington Biochemical (Lakewood, N.J.) and used as a source of SSAO for activity measurements. The SSAO assay was performed in 96 well microtitre plates as follows. A pre-determined amount of inhibitor diluted in 0.2 M potassium phosphate buffer, pH 7.6, was added to each well, if required. The amount of inhibitor varied in each assay but was generally at a final concentration of between 10 nM and 10 μM. Controls lacked inhibitor. In order to study the effects of potential inhibitors 50 μl of inhibitor solution were preincubated for 30 min at 37° C. with 0.4 mU of PAO in an a total volume of 130 μl of 0.2 M potassium phosphate buffer pH 7.6. Assays were then started by addition of 20 μl 10 mM benzylamine substrate and incubated for 20 min at 37° C. The following reagents were then added to a final reaction volume of 200 μl, 50 μl of freshly made chromogenic solution containing […] vanillic acid (Sigma # V-2250), […] 4-aminoantipyrine (Sigma # A-4328) and 12 U/ml horseradish peroxidase (Sigma # P-8250) in order to cause a change of 0.5 OD A490 per hour. This was within the linear response range of the assay. The plates were incubated for 1 hr at 37° C. and the increase in absorbance, reflecting SSAO activity, was measured at 490 nm using a microplate spectrophotometer (Power Wave 40, Bio-Tek Inst.). Inhibition was presented as percent inhibition compared to control after correcting for background absorbance and IC50 values calculated using GraphPad Prism software.

The target of a further data set is T2, recombinant human MAO-A (Homo sapiens, UniProt P21397).
T2 construct: purchased BD Biosciences (MA, USA)
T2 sequence (P21397 1-527): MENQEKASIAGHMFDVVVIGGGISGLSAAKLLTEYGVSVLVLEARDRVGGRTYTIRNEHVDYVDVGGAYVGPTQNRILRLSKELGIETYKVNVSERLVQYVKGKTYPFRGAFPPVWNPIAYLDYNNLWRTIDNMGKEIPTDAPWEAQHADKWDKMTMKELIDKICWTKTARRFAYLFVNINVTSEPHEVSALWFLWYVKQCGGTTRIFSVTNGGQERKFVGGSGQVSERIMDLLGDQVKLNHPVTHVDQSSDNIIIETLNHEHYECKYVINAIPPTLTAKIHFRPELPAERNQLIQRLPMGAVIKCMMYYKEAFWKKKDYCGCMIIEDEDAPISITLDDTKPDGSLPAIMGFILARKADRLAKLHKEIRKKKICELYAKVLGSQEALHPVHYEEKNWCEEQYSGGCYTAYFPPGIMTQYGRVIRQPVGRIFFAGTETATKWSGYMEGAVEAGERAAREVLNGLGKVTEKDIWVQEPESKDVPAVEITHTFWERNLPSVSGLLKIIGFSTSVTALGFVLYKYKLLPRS
Put plainly: Inhibition of MAO-A activity, colorimetric. It counts as biochemical. As to conditions: for Specificity for SSAO vs. MAO-A: ratio IC50 MAO-A to IC50 SSAO. Here is the method: (§1) The specificity of the different SSAO inhibitors was tested by determining their ability to inhibit MAO-A and MAO-B activities in vitro. Recombinant human MAO-A and human MAO-B enzymes were obtained from BD Biosciences (MA, USA). […] A pre-determined amount of inhibitor diluted in 0.2 M potassium phosphate buffer, pH 7.6, was added to each well, if required. […] Controls lacked inhibitor. The following agents were then added to a final reaction volume of 200 μl in 0.2 M potassium phosphate buffer, pH 7.6: 0.04 mg/ml of MAO-A or 0.07 mg/ml MAO-B enzyme, 15 μl of 10 mM tyramine substrate (for MAO-A), or 15 μl 100 mM benzylamine substrate (for MAO-B), and 50 μl of freshly made chromogenic solution (as above). The plates were incubated for 60 min at 37° C. The increase in absorbance, reflecting MAO activity, was measured at 490 nm using microplate spectrophotometer (Power Wave 40, Bio-Tek Inst.). Inhibition was presented as percent inhibition compared to control after correcting for background absorbance and IC50 values calculated using GraphPad Prism software.

Another data set addresses T3, recombinant human MAO-B (Homo sapiens, UniProt P27338).
T3 construct: purchased BD Biosciences (MA, USA)
T3 sequence (P27338 1-520): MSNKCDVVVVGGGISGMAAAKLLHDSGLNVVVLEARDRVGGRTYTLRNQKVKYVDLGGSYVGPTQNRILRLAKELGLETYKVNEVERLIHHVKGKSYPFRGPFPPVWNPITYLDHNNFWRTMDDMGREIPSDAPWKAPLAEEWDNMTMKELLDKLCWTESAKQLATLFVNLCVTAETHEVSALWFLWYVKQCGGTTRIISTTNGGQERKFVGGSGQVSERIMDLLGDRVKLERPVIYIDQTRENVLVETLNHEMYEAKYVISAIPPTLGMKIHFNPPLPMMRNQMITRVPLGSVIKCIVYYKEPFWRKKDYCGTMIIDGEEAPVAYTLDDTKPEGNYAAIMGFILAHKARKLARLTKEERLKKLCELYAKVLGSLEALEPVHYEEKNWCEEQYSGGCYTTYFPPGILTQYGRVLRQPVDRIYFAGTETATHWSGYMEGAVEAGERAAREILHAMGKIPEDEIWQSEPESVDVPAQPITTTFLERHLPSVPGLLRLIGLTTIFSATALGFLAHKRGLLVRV
Description: Inhibition of MAO-B activity, colorimetric. The format is biochemical. Conditions: for Specificity for SSAO vs. MAO-B: ratio IC50 MAO-B to IC50 SSAO. How it is done: as §1

The subject of data set [2] is carrageenan-induced paw edema in Sprague Dawley rats. Description: Carrageenan-induced rat paw edema. Conditions: 3 mg/kg oral 1 hour prior to carrageenan. It counts as in vivo. Here is the method: Female Sprague Dawley rats were used and compounds of the invention were injected i.p. at 100 mg/kg 15 minutes prior to carrageenan exposure. The control group was injected with an equal volume of vehicle (PBS). Edema in the paws was induced as previously described by injecting 50 μl of a 0.5% solution of carrageenan (Type IV Lambda, Sigma) in saline with a 27-G needle s.c. in the right foot pat. (See Whiteley P. E. and Dalrymple S. A. (1998) Models of inflammation: carrageenan-induced paw edema in the rat, in Current Protocols in Pharmacology. Enna S J, Williams M, Ferkany J W, Kenaki T, Porsolt R E and Sullivan J P, eds., pp 5.4.1-5.4.3, John Wiley & Sons, New York) The size of the tested foot of each animal was measured volumetrically, before induction of edema, and at 60, 120, and 180 min after carrageenan induction.
Briefly, SSAO inhibitors (30 mg/kg), indomethacin (3 mg/kg) and PBS were administered orally to rats 1 hour after carrageenan injections.
To investigate further the role of SSAO inhibition in the inflammatory response, studies were carried out to assess the effect of SSAO inhibition on prostaglandin E2 (PGE2) levels. Animals were divided into four therapeutic groups of eight rats each. […] The fourth group received 3 mg/kg of dexamethasone, i.p. 1 hour before paw inflammation. Three hours after carrageenan injection, rats were asphyxiated with CO2 and their hind paws removed. The paws were lacerated with a scalpel, suspended off the bottom of a polypropylene 1.5 ml tube with a micropipette tip and centrifuged to express the inflammatory fluid. The volume collected from each paw was determined and the fluid was analyzed by ELISA for PGE2 production using a commercial kit (R&D Systems, Minneapolis, Minn.) according to the manufacturer's instructions. […] Data were analyzed with GraphPad Prism software (San Diego, Calif.) by Dunnett's test following analysis of variance.
(In general: The carrageenan paw model is a standard test of acute inflammation.)

Broadly, the melting point is the temperature, or range, at which the solid turns liquid. `C=C(CON)c1ccccc1` (as salt: hydrochloride) [Example 1, O-(2-phenyl-allyl)-hydroxylamine Hydrochloride]: the melting point is 101 to 102 °C.
As usually defined, the IC50 is the concentration needed to halve the response being measured. Turning to `C=C(CON)c1ccccc1` [Example 1, O-(2-phenyl-allyl)-hydroxylamine Hydrochloride], the half-maximal inhibitory concentration (IC50) in data set [1] was 0.029 µM. Besides, on recombinant human MAO-A, the IC50 was 900 µM and the “Specificity for SSAO vs. MAO-A” value is 31,000. In addition, on recombinant human MAO-B, the IC50 was 125 µM and the “Specificity for SSAO vs. MAO-B” value is given as 4,300.
As for `C=C(CNN)c1ccc(Cl)cc1.Cl` [Example 3, N-[2-(4′-chlorophenyl)-allyl]-hydrazine Hydrochloride], the IC50 in data set [1] (30 min preincubation, benzylamine substrate, read-out: SSAO Inhibitory Activity IC50) turned out to be 0.05 µM; at recombinant human MAO-A (tyramine substrate, no pre-incubation, read-out: MAO-A Inhibitory Activity IC50), 1 µM; on recombinant human MAO-B it was 24.5 µM. Also, the “Specificity for SSAO vs. MAO-A” value on recombinant human MAO-A turned out to be 20. Further, the “Specificity for SSAO vs. MAO-B” value on recombinant human MAO-B was found to be 490.
As to `C=C(CN(C)N)c1ccc(Cl)cc1.Cl` [Example 4, N-[2-(4′-chlor-phenyl)-allyl]-N-methyl-hydrazine Hydrochloride], the IC50 in data set [1] stood at 0.65 µM; at recombinant human MAO-A it was 260 µM; on recombinant human MAO-B, 175 µM. Moreover, at recombinant human MAO-A, the “Specificity for SSAO vs. MAO-A” value was 400. The “Specificity for SSAO vs. MAO-B” value at recombinant human MAO-B was determined as 269.
For the molecule `C=C(CN(N)CC)c1ccc(Cl)cc1.Cl` [Example 5, N-[2-(4′-Chlorophenyl)-allyl]-N-ethyl-hydrazine Hydrochloride], the melting point was in the range of 150 to 151 °C. The molecule further showed an IC50 in data set [1] of 0.95 µM. For the same molecule, at recombinant human MAO-A, the IC50 turned out to be 690 µM and the “Specificity for SSAO vs. MAO-A” value stood at 726. In addition, on recombinant human MAO-B, the IC50 was 155 µM and the “Specificity for SSAO vs. MAO-B” value is reported as 163.
`C=C(CN(C)NC)c1ccc(Cl)cc1.Cl` [Example 6, N-[2-(4′-Chlorophenyl)-allyl]-N,N′-dimethylhydrazine Hydrochloride] returned a melting point of 108 to 110 °C. In data set [1], the IC50 was 4.7 µM. For the same molecule, at recombinant human MAO-A, the IC50 came out at 300 µM and the “Specificity for SSAO vs. MAO-A” value worked out at 64. Further, on recombinant human MAO-B, the IC50 was 2.8 µM and the “Specificity for SSAO vs. MAO-B” value is 0.60.
As for `C=C(CNNC)c1ccc(F)cc1.Cl` [Example 7, N-[2-(4′-fluorophenyl)-allyl]-N′-methylhydrazine Hydrochloride], the melting point fell in the range of 128 to 129 °C. Also, half-maximal inhibition in data set [1] (IC50) was put at 2.61 µM. On recombinant human MAO-A, the IC50 was determined as 620 µM and the “Specificity for SSAO vs. MAO-A” value is recorded as 230. Moreover, at recombinant human MAO-B, the IC50 came to 210 µM and the “Specificity for SSAO vs. MAO-B” value was 80.
Molecule `C=C(C)CNN.Cl` [Example 9, (2-methyl-allyl)hydrazine Hydrochloride] showed a half-inhibitory concentration (IC50) in data set [1] of 0.055 µM. Besides, at recombinant human MAO-A, the half-inhibitory concentration (IC50) is 350 µM and the “Specificity for SSAO vs. MAO-A” value was 6,300. For the same molecule, on recombinant human MAO-B, the IC50 was 20 µM and the “Specificity for SSAO vs. MAO-B” value was 360.
For `NOCC(O)c1ccccc1` (centres unmarked) [Example 11, 2-Aminooxyl-1-phenyl-ethanol Hydrochloride], in that order: 0.05 µM, 250 µM, 5000, 450 µM and 9000.
On the same counts, the results for `COc1ccc(C(O)CON)cc1OC` (centres unmarked) [Example 12, 2-Aminooxy-1-(3′,4′-dimethoxyphenyl)-ethanol Hydrochloride] are 0.09 µM, 3.6 µM, 400,000, 8200 µM and 90,000.
Consider `COc1ccc2c(c1)c(CC(=O)O)c(C)n2C(=O)c1ccc(Cl)cc1` [indomethacin, reference compound], for which the “PGE2 levels in paw exudate” value in data set [2] was “greater impact”.
